The values below come from US10189863B2, “5,6-dihydro-4H-benzo[b]thieno-[2,3-d]azepine derivatives” (PULMOCIDE LIMITED, priority 2014, dated 2019).

Each structure is given as a SMILES string.

One data set deals with RSV A2 strain. Nature of the data set: Assessment of RSV induced CPE in HEp2 cells (RSV A2 strain). In kind it is cell-based. The settings on record: human respiratory syncytial virus, HEp2 cells; for IC50: HEp-2, 120 h, 1 MOI, 5 days, read-out: RSV A2 CPE IC50; for inhibition at 0.01 µg/mL / inhibition at 0.1 µg/mL: HEp-2; for inhibition at 0.01 µg/mL: Inhibition (%) at 0.01 μg/mL; for inhibition at 0.1 µg/mL: Inhibition (%) at 0.1 μg/mL, read-out: RSV A2 CPE % Inhibition. The essentials: (§1)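 HEp2 cells were infected at MOI 1 with RSV A2 or RSV B Washington, with compound added at the same time (0.5% DMSO final). Incubation was 5 days for A2 and 6 days for B, then viability was read by resazurin fluorescence (545/590 nm) after 6 h. IC50, IC75 and IC90 came from concentration-response curves.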

The next data set relates to RSV B Washington strain. In words: Assessment of RSV induced CPE in HEp2 cells (RSV B Washington strain). The data set is classed as cell-based. To be noted: human respiratory syncytial virus, HEp2 cells; for IC50: HEp-2, 144 h, 1 MOI, 6 days, read-out: RSV B CPE IC50; for inhibition at 1 µg/mL / inhibition at 0.1 µg/mL: HEp-2; for inhibition at 1 µg/mL: Inhibition (%) at 1 μg/mL, read-out: RSV B CPE % Inhibition; for inhibition at 0.1 µg/mL: Inhibition (%) at 0.1 μg/mL. The method in brief:
as §1

For data set [1], the system named is RSV A2 F-protein expression in BEAS2B bronchial epithelial cells. Nature of the data set: Assessment of RSV F protein expression in BEAS2B bronchial epithelial cells. To be noted: human respiratory syncytial virus, BEAS-2B, 72 h, read-out: RSV A2 F-protein IC50 (nM). In kind it is cell-based. The procedure:
Assessment of RSV F Protein Expression in BEAS2B Bronchial Epithelial Cells
An early event which follows the infection of epithelial cells by RSV is the expression of RSV F-protein on the cells' surface. BEAS2B cells (SV40-immortalised human bronchial epithelial cell line) were grown in 96 well plates. Once more than 70% confluent, cells were infected with RSV A2 (#0709161v, NCPV, Public Health England, Wiltshire) at an MOI of 0.01 in clear RPMI-1640 medium (Life technologies, Paisley, UK) with 2% FBS (Life technologies, Paisley, UK), and incubated for 3 days (37° C./5% CO2).
Supernatant was aspirated and the cells were fixed with 4% formaldehyde (100 μL in PBS solution) for 20 min, washed 3 times with washing buffer (200 μL; PBS containing 0.05% Tween-20) and incubated with blocking solution (100 μL; 5% Marvel milk in PBS) for 1 hr. Cells were then washed with washing buffer (200 μL) and incubated for 1 hr at 37° C. with anti-RSV (2F7; mouse monoclonal, lot 160290, Cat. No. ab43812, Abcam plc, Cambridge, UK) F-fusion protein antibody (50 μL; prepared at a 1:1000 dilution in 5% milk/PBS-tween). After washing, cells were incubated with an HRP-conjugated anti-mouse IgG antibody (50 μL prepared at a 1:2000 dilution in 5% milk in PBS; lot 00095437, Cat.No. P0447, Dako UK Ltd, Cambridgeshire, UK) for 1 hr. Cells were washed twice with washing buffer and once with PBS. TMB substrate (100 μL; substrate reagent pack lot 320436, Cat. No. DY999, R&D Systems, Inc. Abingdon, UK) was then added and the reaction was stopped by the addition of aq sulfuric acid (50 μL; 2N). The resultant signal was determined colourimetrically (OD: 450 nm with a reference wavelength of 655 nm) in a microplate reader (Multiskan FC®, ThermoFisher Scientific). Cells were then washed and 1% crystal violet solution (50 μL; lot SLB4576, Cat. No. HT90132-1L, Sigma-Aldrich) was applied for 30 min. After washing with PBS (200 μL) 3 times, 1% SDS (100 μL) was added to each well, and plates were shaken lightly for 1 hr prior to reading the absorbance at 595 nm. The measured OD450-655 readings were corrected for cell number by dividing the OD450-655 by the OD595 readings. The percentage inhibition for each well was calculated and the IC50 value derived from the concentration-response curve generated for each test compound.

Data set [2] is described as follows: Cell viability: resazurin assay. The data set is classed as cell-based, human. To be noted: human, HEp2 cells. The essentials:
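HEp2 cells in 5% FBS DMEM exposed to compounds (0.5% DMSO final) for 5 days at 37 °C/5% CO2, then resazurin added for 6 h; fluorescence read at 545/590 nm. Percent viability loss calculated versus 0.5% DMSO vehicle, with increases shown as negative values; CC50 taken from concentration-response curves where appropriate.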

Regarding `O=C(Nc1c(F)cccc1Cl)c1cc2c(s1)-c1ccccc1N(C(=O)c1ccc(NC(=O)c3cc4c(nc3N3CC5(CCOCC5)C3)CCC4)cc1)CC2` [Example 76, 6-(4-(2-(7-oxa-2-azaspiro[3.5]nonan-2-yl)-6,7-dihydro-5H-cyclopenta[b]pyridine-3-carboxamido)benzoyl)-N-(2-chloro-6-fluorophenyl)-5,6-dihydro-4H-benzo[b]thieno[2,3-d] azepine-2-carboxamide], in the data set on RSV A2 strain, the IC50 worked out at 0.15 nM and the inhibition at 0.01 µg/mL turned out to be 100%. In the data set with RSV B Washington strain, the 50% inhibitory concentration (IC50) amounted to 1.4 nM and the inhibition at 1 µg/mL is 100%. In addition, the half-maximal inhibitory concentration (IC50) in data set [1] was determined as 0.32 nM. In data set [2], this molecule had a half-maximal cytotoxic concentration (CC50) at 5 days of more than 13.1 µM.
For `O=C(Nc1ccc(F)cc1Cl)c1cc2c(s1)-c1ccccc1N(C(=O)c1ccc(NC(=O)c3cccnc3N3CC4(CCOCC4)C3)cc1)CC2` [Example 27, 6-(4-(2-(7-oxa-2-azaspiro[3.5]nonan-2-yl)nicotinamido)benzoyl)-N-(2-chloro-4-fluorophenyl)-5,6-dihydro-4H-benzo [b]thieno[2,3-d]azepine-2-carboxamide], the IC50 in the data set with RSV A2 strain is 0.17 nM; in the data set with RSV B Washington strain, 37.4 nM; in data set [1] it was 0.51 nM. In addition, the inhibition at 0.1 µg/mL with RSV A2 strain was found to be 100%. Moreover, the inhibition at 1 µg/mL in the data set on RSV B Washington strain is 100%. For the same molecule, the 50% cytotoxic concentration (CC50) at 5 days in data set [2] is more than 13.8 µM.
Consider `Cc1cccc(F)c1NC(=O)c1cc2c(s1)-c1ccccc1N(C(=O)c1ccc(NC(=O)c3cc4c(nc3N3CC5(CCOCC5)C3)CCCC4)cc1)CC2` [Example 9, 6-(4-(2-(7-Oxa-2-azaspiro[3.5]nonan-2-yl)-5,6,7,8-tetrahydroquinoline-3-carboxamido)benzoyl)-N-(2-fluoro-6-methylphenyl)-5,6-dihydro-4H-benzo[b]thieno[2,3-d]azepine-2-carboxamide], for which, in the data set with RSV A2 strain, the IC50 is 0.39 nM and the inhibition at 0.01 µg/mL is 92%. Further, in the data set with RSV B Washington strain, the half-inhibitory concentration (IC50) came out at 1.4 nM and the inhibition at 0.1 µg/mL is 100%. The half-maximal inhibitory concentration (IC50) in data set [1] was 0.034 nM. This molecule returned a CC50 at 5 days in data set [2] of 12.5 µM.
`Cc1cnc(N2CC3(CCOCC3)C2)c(C(=O)Nc2ccc(C(=O)N3CCc4cc(C(=O)Nc5ccccc5F)sc4-c4ccccc43)cc2)c1` [Example 33, N-(2-fluorophenyl)-6-(4-(5-methyl-2-(7-oxa-2-azaspiro [3.5]nonan-2-yl)nicotinamido)benzoyl)-5,6-dihydro-4H-benzo[b]thieno[2,3-d]azepine-2-carboxamide]: in the data set on RSV A2 strain, the IC50 was less than 0.014 nM and the inhibition at 0.1 µg/mL came out at 100%. Besides, in the data set with RSV B Washington strain, the concentration for half-maximal inhibition (IC50) was 9.7 nM and the inhibition at 1 µg/mL stood at 74%. Moreover, the 50% inhibitory concentration (IC50) in data set [1] amounted to 0.19 nM. This molecule registered a CC50 at 5 days in data set [2] of more than 14.2 µM.
As to `O=C(Nc1ccccc1F)c1cc2c(s1)-c1ccccc1N(C(=O)c1ccc(NC(=O)c3cccnc3N3CC4(CCOCC4)C3)cc1)CC2` [Example 15, 6-(4-(2-(7-oxa-2-azaspiro[3.5]nonan-2-yl)nicotinamido)benzoyl)-N-(2-fluorophenyl)-5,6-dihydro-4H-benzo[b]thieno [2,3-d]azepine-2-carboxamide], in the data set with RSV A2 strain, the half-maximal inhibitory concentration (IC50) worked out at 0.4 nM and the inhibition at 0.1 µg/mL was 100%. For the same molecule, in the data set with RSV B Washington strain, the IC50 came out at 20.4 nM and the inhibition at 1 µg/mL is 85%. For the same molecule, in data set [1], the concentration for half-maximal inhibition (IC50) worked out at 0.36 nM. Further, the CC50 at 5 days in data set [2] was more than 14.5 µM.
As for `O=C(Nc1c(F)cccc1Cl)c1cc2c(s1)-c1ccccc1N(C(=O)c1ccc(NC(=O)c3cc4ccccc4nc3N3CC4(CCOCC4)C3)cc1)CC2` [Example 87, 6-(4-(2-(7-oxa-2-azaspiro[3.5]nonan-2-yl)quinoline-3-carboxamido)benzoyl)-N-(2-chloro-6-fluorophenyl)-5,6-di-hydro-4H-benzo[b]thieno[2,3-d]azepine-2-carboxamide], in the data set on RSV A2 strain, the IC50 is 0.54 nM and the inhibition at 0.01 µg/mL was determined as 94%. In the data set with RSV B Washington strain, the half-inhibitory concentration (IC50) was 15.8 nM and the inhibition at 0.1 µg/mL came out at 100%. The IC50 in data set [1] was 0.49 nM. In data set [2], this molecule had a cytotoxic concentration (CC50) at 5 days of more than 12.9 µM.
`Cc1cccc(F)c1NC(=O)c1cc2c(s1)-c1ccccc1N(C(=O)c1ccc(NC(=O)c3cc4c(nc3N3CC5(CCOCC5)C3)CCC4)cc1)CC2` [Example 8, 6-(4-(2-(7-Oxa-2-azaspiro[3.5]nonan-2-yl)-6,7-dihydro-5H-cyclopenta[b]pyridine-3-carboxamido)benzoyl)-N-(2-fluoro-6-methylphenyl)-5,6-dihydro-4H-benzo[b]thieno[2,3-d]azepine-2-carboxamide]: in the data set with RSV A2 strain, the IC50 is 0.27 nM and the inhibition at 0.01 µg/mL was 88%. In the data set on RSV B Washington strain, the IC50 worked out at 1.3 nM and testing at 0.1 µg/mL gave an inhibition of 100%. In data set [1], the IC50 stood at 0.13 nM. The CC50 at 5 days in data set [2] is more than 13.5 µM.
With `Cc1cnc(N2CC3(CCOCC3)C2)c(C(=O)Nc2ccc(C(=O)N3CCc4cc(C(=O)Nc5c(F)cccc5Cl)sc4-c4ccccc43)cc2)c1` [Example 39, N-(2-chloro-6-fluorophenyl)-6-(4-(5-methyl-2-(7-oxa-2-azaspiro[3.5]nonan-2-yl)nicotinamido)benzoyl)-5,6-dihydro-4H-benzo[b]thieno[2,3-d]azepine-2-carboxamide], the half-maximal inhibitory concentration (IC50) in the data set with RSV A2 strain was less than 0.014 nM; in the data set with RSV B Washington strain, 17.3 nM; in data set [1], 0.057 nM. In addition, the inhibition at 0.1 µg/mL in the data set with RSV A2 strain turned out to be 100%. In addition, the inhibition at 1 µg/mL with RSV B Washington strain amounted to 77%. The CC50 at 5 days in data set [2] is more than 13.6 µM.
`O=C(Nc1c(F)cccc1Cl)c1cc2c(s1)-c1ccccc1N(C(=O)c1ccc(NC(=O)c3cc4c(nc3N3CC5(CCOCC5)C3)CCCC4)cc1)CC2` [Example 81, 6-(4-(2-(7-oxa-2-azaspiro[3.5]nonan-2-yl)-5,6,7,8-tetra-hydroquinoline-3-carboxamido)benzoyl)-N-(2-chloro-6-fluorophenyl)-5,6-dihydro-4H-benzo[b]thieno[2,3-d]azepine-2-carboxamide]: the concentration for half-maximal inhibition (IC50) in the data set on RSV A2 strain is 0.18 nM; in the data set on RSV B Washington strain, 10.2 nM; in data set [1] it was 0.13 nM. In the data set with RSV A2 strain, this molecule displayed an inhibition at 0.01 µg/mL of 77%. For the same molecule, the inhibition at 0.1 µg/mL in the data set with RSV B Washington strain was 100%. The CC50 at 5 days in data set [2] is more than 12.9 µM.
Turning to `Cc1cccc(F)c1NC(=O)c1cc2c(s1)-c1ccccc1N(C(=O)c1ccc(NC(=O)c3cc4ccccc4nc3N3CC4(CCOCC4)C3)cc1)CC2` [Example 10, 6-(4-(2-(7-Oxa-2-azaspiro[3.5]nonan-2-yl)quinoline-3-carboxamido)benzoyl)-N-(2-fluoro-6-methylphenyl)-5,6-dihydro-4H-benzo[b]thieno[2,3-d]azepine-2-carboxamide], the half-inhibitory concentration (IC50) amounted to 0.11 nM in the data set with RSV A2 strain, 1.5 nM in the data set on RSV B Washington strain and 0.48 nM in data set [1]. Besides, the inhibition at 0.1 µg/mL in the data set on RSV A2 strain and in the data set on RSV B Washington strain was 100% each time. Also, in data set [2], the CC50 at 5 days is more than 13.3 µM.
As for `O=C(Nc1ccccc1Cl)c1cc2c(s1)-c1ccccc1N(C(=O)c1ccc(NC(=O)c3cccnc3N3CC4(CCOCC4)C3)cc1)CC2` [Example 16, 6-(4-(2-(7-oxa-2-azaspiro[3.5]nonan-2-yl)nicotinamido)benzoyl)-N-(2-chlorophenyl)-5,6-dihydro-4H-benzo[b]thieno [2,3-d]azepine-2-carboxamide], in the data set with RSV A2 strain, the 50% inhibitory concentration (IC50) amounted to 0.76 nM and the inhibition at 0.1 µg/mL came out at 100%. For the same molecule, in the data set on RSV B Washington strain, the IC50 is 142 nM and the inhibition at 1 µg/mL was 63%. In addition, the concentration for half-maximal inhibition (IC50) in data set [1] is 0.93 nM. The molecule also had a CC50 at 5 days in data set [2] of more than 14.2 µM.

One may read the IC50 as the concentration that inhibits the measured activity by half. A word on the inhibition: it is the relative decrease from the control value, in per cent. The term CC50 denotes the concentration at which the toxic effect on the cells reaches its halfway point. A low value points to greater toxicity to the cells.
